Test system: NIH3T3 cell
Experiment: NIH3T3 cell adhesion on film
Assay type: cell-based
Settings: seeded 10^4 cells/cm^2 in D-MEM, 5% CO2, 37° C., 1 hour, washed three times with PBS, counted at five positions
Method: A NIH3T3 cell suspended in D-MEM was added onto the resulting Gly-Arg-Gly-Asp-Ser-conjugated poly(Pro-Hyp-Gly) film at a ratio of 10^4 cells/cm^2, followed by allowing to stand in 5% CO2 at 37° C. for 1 hour. The non-adhered cell was washed out three times with PBS and the number of adhered cells was counted at five positions on the film.

Row | Substance | number of adhered cells (average)
1 | bovine collagen type I: Bovine collagen type I coated on a plastic dish, comparison surface | 6,000 cells/cm^2
2 | poly(Pro-Hyp-Gly) | 2,000 cells/cm^2
